# Measurements as given in patent publication US20260285850A1, “SUBSTITUTED OXAZOLIDINONES AND IMIDAZOLINONES AS HERBICIDES” (FMC CORPORATION, priority 2023, published 2026).
# How the values were obtained:
# Type in all cases: in vivo
# [1] = tested on: barnyardgrass (Echinochloa crusgalli); assay: Test B flooded paddy test, visual plant response rating 0-100; conditions: 250 g ai/ha, Flood, applied to paddy water, evaluated after 13 days
# Summary of the method: (§1)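 Visual scores versus untreated controls were recorded 13 days after treatment of greenhouse-held plants. At the 2-leaf stage, pots were flooded 3 cm above the soil surface and compounds added straight to the water.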
# [2] = tested on: sedge, umbrella (small-flower umbrella sedge, Cyperus difformis); assay: as above; conditions: 250 g ai/ha, Flood, applied to paddy water, evaluated after 13 days
# Summary of the method: as §1
# rice (Oryza sativa) = assay: as above; conditions: 250 g ai/ha, Flood, applied to paddy water, evaluated after 13 days
# Summary of the method: as §1
# [3] = tested on: ducksalad (Heteranthera limosa); assay: as above; conditions: 250 g ai/ha, Flood, applied to paddy water, evaluated after 13 days
# Summary of the method: as §1
# [4] = tested on: wheat (Triticum aestivum); assay: Test A preemergence soil spray, visual injury rating 0-100; conditions: 10 days
# Summary of the method: (§2)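 Plants were grown in a loam soil-sand blend and treated with test chemical in a non-phytotoxic solvent mixture containing surfactant, either sprayed on soil preemergence or applied postemergence to 2-10 cm plants. After 10 days in a greenhouse, injury was scored visually against untreated controls, 0 meaning no effect and 100 complete control.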
# soybean (Glycine max) [5] = assay: as above; conditions: 10 days
# Summary of the method: as §2
# [6] = tested on: blackgrass (Alopecurus myosuroides); assay: as above; conditions: 10 days
# Summary of the method: as §2
# [7] = tested on: oat, wild (wild oat, Avena fatua); assay: as above; conditions: 10 days
# Summary of the method: as §2
# [8] = tested on: green foxtail (Setaria viridis); assay: as above; conditions: 10 days
# Summary of the method: as §2
# [9] = tested on: barnyardgrass (Echinochloa crus-galli); assay: as above; conditions: 10 days
# Summary of the method: as §2
# [10] = tested on: ragweed (common ragweed, Ambrosia artemisiifolia); assay: as above; conditions: 10 days
# Summary of the method: as §2
# [11] = tested on: ryegrass, Italian (italian ryegrass, Lolium multiflorum); assay: as above; conditions: 10 days
# Summary of the method: as §2
# kochia (Bassia scoparia) [12] = assay: as above; conditions: 10 days
# Summary of the method: as §2
# corn (Zea mays) [13] = assay: as above; conditions: 10 days
# Summary of the method: as §2
# [14] = tested on: galium (catchweed bedstraw, Galium aparine); assay: Test A postemergence application, visual injury rating 0-100
# Summary of the method: as §2
# [15] = tested on: wheat (Triticum aestivum); assay: as above
# Summary of the method: as §2
# soybean (Glycine max) [16] = assay: as above
# Summary of the method: as §2
# [17] = tested on: blackgrass (Alopecurus myosuroides); assay: as above
# Summary of the method: as §2
# [18] = tested on: horseweed (Erigeron canadensis); assay: as above
# Summary of the method: as §2
# [19] = tested on: oat, wild (wild oat, Avena fatua); assay: as above
# Summary of the method: as §2
# [20] = tested on: green foxtail (Setaria viridis); assay: as above
# Summary of the method: as §2
# [21] = tested on: barnyardgrass (Echinochloa crus-galli); assay: as above
# Summary of the method: as §2
# [22] = tested on: ragweed (common ragweed, Ambrosia artemisiifolia); assay: as above
# Summary of the method: as §2
# [23] = tested on: palmer (palmer amaranth, palmer pigweed, Amaranthus palmeri); assay: as above
# Summary of the method: as §2
# [24] = tested on: ryegrass, Italian (italian ryegrass, Lolium multiflorum); assay: as above
# Summary of the method: as §2
# kochia (Bassia scoparia) [25] = assay: as above
# Summary of the method: as §2
# corn (Zea mays) [26] = assay: as above
# Summary of the method: as §2
# [27] = 62 g ai/ha, 0 = no effect, 100 = complete control
# [28] = 62 g ai/ha, postemergence, 10 days, 0 = no effect, 100 = complete control
# [29] = Postemergence, 16 g ai/ha, greenhouse 10 days, 0 no effect, 100 complete control
compound,measurement,setting,value
CC1(C(=O)NC2CC=C(C(=O)OCC(F)(F)F)C2)CN(c2cc(F)cc(Cl)c2)C(=O)O1 (centres unmarked) [Compound 141],"Plant response rating, Barnyardgrass (0 to 100 scale, 0 is no effect and 100 is complete control)",[1],90
same,"Plant response rating, Sedge, Umbrella (0 to 100 scale, 0 is no effect and 100 is complete control)",[2],85
same,"Plant response rating, Rice (0 to 100 scale, 0 is no effect and 100 is complete control)",rice (Oryza sativa),50
same,"Plant response rating, Ducksalad (0 to 100 scale, 0 is no effect and 100 is complete control)",[3],65
same,Wheat plant response rating,"[4]; 16 g ai/ha, 0 to 100 scale",80
same,Wheat plant response rating (0-100),[4]; [27],90
same,Soybean plant response rating,"soybean (Glycine max) [5]; 16 g ai/ha, 0 to 100 scale",0
same,Soybean plant response rating (0-100),soybean (Glycine max) [5]; [27],70
same,Blackgrass plant response rating,"[6]; 16 g ai/ha, 0 to 100 scale",0
same,Blackgrass plant response rating (0-100),[6]; [27],80
same,"Oat, Wild plant response rating","[7]; 16 g ai/ha, 0 to 100 scale",0
same,"Oat, Wild plant response rating (0-100)",[7]; [27],40
same,"Foxtail, Green plant response rating","[8]; 16 g ai/ha, 0 to 100 scale",20
same,"Foxtail, Green plant response rating (0-100)",[8]; [27],90
same,Barnyardgrass plant response rating,"[9]; 16 g ai/ha, 0 to 100 scale",0
same,Barnyardgrass plant response rating (0-100),[9]; [27],70
same,Ragweed plant response rating,"[10]; 16 g ai/ha, 0 to 100 scale",0
same,Ragweed plant response rating (0-100),[10]; [27],0
same,"Ryegrass, Italian plant response rating","[11]; 16 g ai/ha, 0 to 100 scale",50
same,"Ryegrass, Italian plant response rating (0-100)",[11]; [27],90
same,Kochia plant response rating,"kochia (Bassia scoparia) [12]; 16 g ai/ha, 0 to 100 scale",0
same,Kochia plant response rating (0-100),kochia (Bassia scoparia) [12]; [27],80
same,Corn plant response rating,"corn (Zea mays) [13]; 16 g ai/ha, 0 to 100 scale",10
same,Corn plant response rating (0-100),corn (Zea mays) [13]; [27],70
same,Galium plant response rating (0-100),[14]; [28],80
same,Galium plant response rating (0 to 100 scale),[14]; [29],80
same,Wheat plant response rating (0-100),[15]; [28],90
same,Wheat plant response rating (0 to 100 scale),[15]; [29],90
same,Soybean plant response rating (0-100),soybean (Glycine max) [16]; [28],70
same,Soybean plant response rating (0 to 100 scale),soybean (Glycine max) [16]; [29],70
same,Blackgrass plant response rating (0-100),[17]; [28],90
same,Blackgrass plant response rating (0 to 100 scale),[17]; [29],90
same,Horseweed plant response rating (0-100),[18]; [28],80
same,Horseweed plant response rating (0 to 100 scale),[18]; [29],60
same,"Oat, Wild plant response rating (0-100)",[19]; [28],80
same,"Oat, Wild plant response rating (0 to 100 scale)",[19]; [29],20
same,"Foxtail, Green plant response rating (0-100)",[20]; [28],90
same,"Foxtail, Green plant response rating (0 to 100 scale)",[20]; [29],90
same,Barnyardgrass plant response rating (0-100),[21]; [28],100
same,Barnyardgrass plant response rating (0 to 100 scale),[21]; [29],100
same,Ragweed plant response rating (0-100),[22]; [28],60
same,Ragweed plant response rating (0 to 100 scale),[22]; [29],30
same,"Pigweed, Palmer plant response rating (0-100)",[23]; [28],90
same,"Pigweed, Palmer plant response rating (0 to 100 scale)",[23]; [29],70
same,"Ryegrass, Italian plant response rating (0-100)",[24]; [28],80
same,"Ryegrass, Italian plant response rating (0 to 100 scale)",[24]; [29],20
same,Kochia plant response rating (0-100),kochia (Bassia scoparia) [25]; [28],90
same,Kochia plant response rating (0 to 100 scale),kochia (Bassia scoparia) [25]; [29],70
same,Corn plant response rating (0-100),corn (Zea mays) [26]; [28],100
same,Corn plant response rating (0 to 100 scale),corn (Zea mays) [26]; [29],100
